pEC50: −log10 of the molar value. Several values for one entry are separate records, joined by “and”; a condition that tells them apart may be missing. Identical values can stand only once.
What was measured:
VEEV TC-83 strain = format: cell-based, Venezuelan equine encephalitis virus
VEEV TrD strain = format: cell-based, Venezuelan equine encephalitis virus
VEEV (TC-83) [1] = tested on: VEEV (TC-83)
VEEV (TC-83) [2] = conditions: mouse, in vivo
[3] = tested on: panel of 67 GPCRs, ion channels and transporters; format: binding; conditions: 10 µM
Fa2N-4 cells = conditions: human
[4] = male, in vivo
[5] = mouse, in vivo, ip
CYP2C9 = CYP2C9 (Homo sapiens, UniProt P11712); assay: in vitro; conditions: pH 7.4
CYP2C9, sequence (P11712 whole entry): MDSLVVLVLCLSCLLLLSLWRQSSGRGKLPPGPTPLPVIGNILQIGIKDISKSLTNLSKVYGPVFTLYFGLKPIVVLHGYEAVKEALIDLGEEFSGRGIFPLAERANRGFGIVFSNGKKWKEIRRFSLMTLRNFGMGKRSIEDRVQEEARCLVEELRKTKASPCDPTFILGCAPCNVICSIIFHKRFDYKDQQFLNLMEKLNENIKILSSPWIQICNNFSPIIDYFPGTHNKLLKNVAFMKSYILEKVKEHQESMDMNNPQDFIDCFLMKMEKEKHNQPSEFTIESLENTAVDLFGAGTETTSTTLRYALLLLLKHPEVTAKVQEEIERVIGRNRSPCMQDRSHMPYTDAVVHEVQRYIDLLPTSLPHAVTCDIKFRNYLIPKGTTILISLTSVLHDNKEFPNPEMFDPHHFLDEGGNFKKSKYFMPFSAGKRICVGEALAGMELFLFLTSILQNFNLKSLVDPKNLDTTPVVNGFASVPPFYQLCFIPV

CYP2C19 = CYP2C19 (Homo sapiens, UniProt P33261); assay: in vitro; conditions: pH 7.4
CYP2C19, sequence (P33261 whole entry): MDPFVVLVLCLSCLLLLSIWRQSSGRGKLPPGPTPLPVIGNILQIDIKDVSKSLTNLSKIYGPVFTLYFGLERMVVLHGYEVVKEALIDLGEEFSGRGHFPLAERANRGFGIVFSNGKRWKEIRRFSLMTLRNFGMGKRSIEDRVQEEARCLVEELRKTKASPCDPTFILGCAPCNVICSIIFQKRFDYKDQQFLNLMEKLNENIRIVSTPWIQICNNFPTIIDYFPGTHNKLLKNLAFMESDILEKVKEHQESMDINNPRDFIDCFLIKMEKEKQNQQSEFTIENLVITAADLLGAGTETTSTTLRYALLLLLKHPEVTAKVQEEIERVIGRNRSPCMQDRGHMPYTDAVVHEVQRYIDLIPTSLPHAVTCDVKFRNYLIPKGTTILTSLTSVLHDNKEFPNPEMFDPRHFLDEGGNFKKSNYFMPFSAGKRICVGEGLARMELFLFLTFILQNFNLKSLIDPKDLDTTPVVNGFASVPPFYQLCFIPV

CYP2D6 = CYP2D6 (Homo sapiens, UniProt P10635); assay: in vitro; conditions: pH 7.4
CYP2D6, sequence (P10635 whole entry): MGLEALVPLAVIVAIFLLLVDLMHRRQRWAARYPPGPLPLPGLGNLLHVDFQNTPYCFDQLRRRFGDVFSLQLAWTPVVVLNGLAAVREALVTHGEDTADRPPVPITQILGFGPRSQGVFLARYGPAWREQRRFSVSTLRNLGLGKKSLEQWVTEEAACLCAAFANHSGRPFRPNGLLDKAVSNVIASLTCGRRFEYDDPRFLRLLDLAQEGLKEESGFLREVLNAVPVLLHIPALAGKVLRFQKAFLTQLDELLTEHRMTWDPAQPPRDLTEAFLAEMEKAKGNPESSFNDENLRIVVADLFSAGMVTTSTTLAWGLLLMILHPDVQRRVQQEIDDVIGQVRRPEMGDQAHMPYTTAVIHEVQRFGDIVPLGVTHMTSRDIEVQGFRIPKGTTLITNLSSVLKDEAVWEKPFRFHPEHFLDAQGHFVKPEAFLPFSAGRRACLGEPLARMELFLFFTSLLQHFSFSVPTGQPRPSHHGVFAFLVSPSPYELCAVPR

CYP3A4 = CYP3A4 (Homo sapiens, UniProt P08684); assay: in vitro; conditions: pH 7.4
CYP3A4, sequence (P08684 whole entry): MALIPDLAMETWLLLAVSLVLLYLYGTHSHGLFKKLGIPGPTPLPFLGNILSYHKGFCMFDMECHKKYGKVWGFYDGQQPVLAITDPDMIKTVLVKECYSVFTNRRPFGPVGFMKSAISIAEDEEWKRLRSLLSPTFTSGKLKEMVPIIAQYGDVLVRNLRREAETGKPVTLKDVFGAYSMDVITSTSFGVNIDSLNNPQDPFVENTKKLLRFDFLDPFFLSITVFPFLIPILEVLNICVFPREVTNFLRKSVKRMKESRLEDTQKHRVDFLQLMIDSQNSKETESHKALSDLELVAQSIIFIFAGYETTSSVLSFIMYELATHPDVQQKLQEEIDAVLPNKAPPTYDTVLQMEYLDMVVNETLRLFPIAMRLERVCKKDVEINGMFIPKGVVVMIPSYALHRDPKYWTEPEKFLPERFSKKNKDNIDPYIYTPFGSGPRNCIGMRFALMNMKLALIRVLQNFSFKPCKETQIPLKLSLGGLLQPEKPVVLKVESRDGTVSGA

VEEV (TC-83) [6] = assay: microbe, parasite or virus in culture; conditions: Venezuelan equine encephalitis virus, read-out: EC50, several VEEV strains

Structure (SMILES) | titer reduction, TC-83 strain (fold) (VEEV TC-83 strain) | titer reduction, TC-83 strain (log) (VEEV TC-83 strain) | titer reduction, TC-83 strain, dose response, EC90 (VEEV TC-83 strain) | titer reduction, TrD strain (VEEV TrD strain) | lipophilic ligand efficiency, LLE (VEEV (TC-83) [1]) | percent survival (VEEV (TC-83) [2]) | inhibition of all other targets in the collection [3] | hepatocyte toxicity (Fa2N-4), LD50 (Fa2N-4 cells) | plasma and brain concentration over in vitro CPE assay EC50 ([4]; C57Bl/6, mouse) | brain average concentration ± standard deviation ([4]; C57Bl/6J, mouse) | toxicity (body weight loss, lethargy, hunched posture, ruffled fur) [5] | solubility (physchem; aqueous solubility, VEEV CPE assay medium) | solubility (physchem; pH 7.4, aqueous solubility, 1× PBS, pH 7.4) | inhibition at 10 µM (CYP2C9) | inhibition at 10 µM (CYP2C19) | inhibition at 10 µM (CYP2D6) | inhibition at 10 µM (CYP3A4) | pEC50 (VEEV (TC-83) [6])
COc1ccc(NC(=O)c2cc([N+](=O)[O-])ccc2/N=C2\CN(C)CCN2C)cc1 [compound 51, (E)-2-((1,4-Dimethylpiperazin-2-ylidene)amino)-N-(4-methoxyphenyl)-5-nitrobenzamide] | 7.2 log (16 million fold) | 7.2 log (16 million fold) | 0.17 µM | no measurable viral replication | 4.1 |  |  |  |  |  |  |  |  |  |  |  |  | 
CCN1CCN(Cc2nc3ccc([N+](=O)[O-])cc3c(=O)n2-c2ccccc2F)CC1 [compound 1, 2-((4-Ethylpiperazin-1-yl)methyl)-3-(2-fluorophenyl)-6-nitroquinazolin-4(3H)-one] |  | 0.5 log (3-fold) |  |  |  |  |  |  |  |  |  |  |  |  |  |  |  | 
CN1CCN(C)/C(=N/c2ccc([N+](=O)[O-])cc2C(=O)Nc2ccccc2)C1 [compound 45, (E)-2-((1,4-Dimethylpiperazin-2-ylidene)amino)-5-nitro-N-phenylbenzamide] | 5.8 log (630 000 fold) and 7.2 log (16 million fold) |  | 0.17 µM | no measurable viral replication |  | 71% | ≤ 36% | > 25 µM | > 10 fold | 0.35 ± 0.06 µM | no apparent toxicity or adverse effects were observed | 0.0131 mg/mL | 110 µM | < 30% | < 30% | < 30% | < 30% | 7.40 to 7.70

From paper PMC4207539 (Journal of Medicinal Chemistry, 2014)
